The test system of one test is mice. The experiment in a line: elevated plus-maze. Type of test: in vivo, N.I.H. Swiss-Webster mice. The text has this: The theoretical basis for the elevated plus-maze test is similar to that of the light/dark transition test. As described by Pellow et al., J. Neurosci. Meth 14:149-167 (1985), the elevated plus-maze apparatus is designed to utilize the mice's natural aversion to open spaces. The apparatus consists of two open-arms and two enclosed-arms. The elevated plus-maze test allows for two measures of anxiety, the number of entries into the open-arms and the time spent on the open-arms, both expressed as a percentage of the total number of entries and time spent in/on both the open-arms and enclosed-arms.
Male N.I.H. Swiss-Webster mice (Harlan, Indianapolis, IN) weighing 15-20 g were housed four per cage in polyethylene cages with sawdust bedding. The colony room was environmentally controlled (22°C) with a 12 hr light/dark cycle (0600-1800 hr). Food and water were available ad libitum, except during testing. The experiments were run from 0700-1500 hr and groups were counterbalanced for time of day effects. Mice were only administered drug or vehicle once.
The method used was previously described (Lister, Psychopharmacol. 92:180-185 (1987)). The apparatus included two open arms perpendicular to two enclosed arms elevated 50 cm from the floor. Each arm was 50 cm long and the walls of the enclosed arms were 40 cm tall. The maze was made completely of black plexiglass. Incandescent 200 W light bulbs were above each of the open arms to produce a strong contrast between the open arms and the enclosed arms.
Ten minutes after an injection, the N.I.H. Swiss-Webster mice were placed in the center of the plus-maze facing an open arm. During the 5 min test period, the number of entries onto the open arms and the enclosed arms, and the time spent in the open arms and enclosed arms were measured. All four paws had to be within an arm for the dependent variable to be measured. Therefore, the time spent in the center of the maze is not counted, so the total time spent in the open arms and the enclosed arms may not equal 5 min. […]

The target in another test is GR complex. Briefly: modulation of [35S]TBPS binding in rat cerebral cortex P2 homogenate. Also on record: species or system Sprague-Dawley rats; IMAX: unit not given here. As to conditions: for IC50: concentration of compounds to inhibit 50% of control [35S]TBPS binding, 2 nM [35S]TBPS, 25°C, 90 minutes, no unit printed; for IMAX: maximum inhibition of [35S]TBPS binding, I* = Inactive. On the procedure:
We performed several experiments to determine the nature of the modulation of [^35S]TBPS as affected by the compounds of the invention.
These procedures were performed as follows:
Brains from male Sprague-Dawley rats were removed immediately following sacrifice and the cerebral cortices dissected over ice. […] Briefly, the cortices were gently homogenized in 0.32 M sucrose followed by centrifugation at 1000 x g for 10 minutes. The supernatant was collected and centrifuged at 9000 x g for 20 minutes. The resultant P2 pellet was suspended as a 10% (original wet weight/volume) suspension in 50 mM Na/K phosphate buffer (pH 7.4) 200 mM NaCI to form the homogenate.
One hundred microliter […] aliquots of the P2 homogenate (0.5 milligrams (mg) protein) were incubated with 2 nanomolar (nM) [^35S]TBPS (70-110 curies/millimole;, New England Nuclear, Boston, MA) in the presence or absence of the naturally occurring steroids or their synthetic derivatives to be tested. The tested compounds were dissolved in dimethylsulfoxide (Baker Chem. Co., Phillipsbury, NJ) and added to the incubation mixture in 5 µL aliquots. The incubation mixture was brought to a final volume of 1 mL with buffer. Nonspecific binding was defined as binding in the presence of […]. The effect and specificity of GABA (Sigma Chem. Co., St. Louis, MO) was evaluated by performing all assays in the presence of GABA plus (+)bicuculline (Sigma Chem. Co.). Incubations maintained at 25°C for 90 minutes (steady state conditions) were terminated by rapid filtration through glass fiber filters (No. 32, Schleicher and Schuell, Keene, NH). Filter-bound radioactivity was quantitated by liquid scintillation spectrophotometry.
Various compounds were screened to determine their potential as modulators of [^35S]TBPS binding in vitro. These assays were performed in accordance with the above discussed procedures. […] It is an indication of a compound's in vitro potency. Maximum inhibition is an indication of a compound's in vitro efficacy.

The test system of test [1] is metrazol induced convulsions. Briefly: animal or person. Type of test: in vivo, mice. The conditions noted are these: IP. The procedure: Experiments were also performed to determine the physiological relevance of neuroactive steroid and GABA receptor interactions by assessing the ability of the compounds of and used in the invention to prevent metrazol induced convulsions in mice. […] The time to onset of myoclonus (presence of forelimb clonic activity) induced by metrazol was determined by observing each mouse for a period of 30 minutes. […]
The anticonvulsant tests are similar to that described above. […] The number of animals with tonic and/or clonic convulsions was recorded. In the maximal electroshock test, 50 mA of current at 60 Hz was delivered through corneal electrodes for 200 msec to induce tonic seizure. The ability of compounds to abolish the tonic component was defined as the endpoint. General CNS depression potential was determined by a rotorod test 10 minutes after the injection of compounds where the number of mice staying on a rotating (6 rpm) rod for 1 minute in one of the three trials was determined. […]

[2] abbreviates: 50% hpbcd, 10 mg/kg, 10 minutes prior to metrazol (85 mg/kg).

As for `C#C[C@@]1(O)CC[C@@]2(C)[C@H](CC[C@@H]3[C@@H]2CC[C@]2(C)[C@@H](C(C)O)CC[C@@H]32)C1` (stereo partly drawn) [3α,20-Dihydroxy-3β-ethynyl-5β-pregnane], the “% Control” value in the test with mice (IP, dmso, 10 mg/kg) is given as 178%.

As usually defined, the IC50 is the midpoint of a concentration-inhibition curve. `CCC(O)C1CCC2C3CCC4CC(C)(O)CCC4(C)C3CCC12C` (stereo not drawn) [3α,20α-Dihydroxy-3β,21-dimethyl-5α-pregnane]: the “% Control” value with mice (IP, dmso, 10 mg/kg) stood at 73%. On GR complex, this compound gave an IC50 of 507 nM and an IMAX of 48. Moreover, in test [1] (dmso, 10 mg/kg), the “% Protected” value is 0%.

Take `CC(O)C1CCC2C3CCC4CC(C)(O)CCC4(C)C3CCC12C` (stereo not drawn) [3α,20α-dihydroxy-3β-methyl-5α-pregnane]: the “% Control” value in the test on mice (IV, micro soln., 10 mg/kg) amounted to 174.5%. At GR complex, this compound registered an IC50 of 166 nM and an IMAX of 52. For the same compound, the “% Protected” value in test [1] (micro soln., 100 mg/kg) was found to be 60%.

As to `C#C[C@@]1(O)CC[C@@]2(C)[C@H](CC[C@@H]3[C@@H]2CC[C@]2(C)[C@@H](C(=O)COC(C)=O)CC[C@@H]32)C1` [3α,21-Dihydroxy-3β+ethynyl-5β-pregnan-20-one 21-acetate], the “% Control” value in the test on mice (IP, 50% hpbcd, 10 mg/kg) amounted to 159%. At GR complex, this compound displayed an IC50 of 251 nM and an IMAX of 101. The “% Protected” value in test [1] (setting [2]) turned out to be 62.5%.

Consider `C[C@]12CC[C@H]3[C@@H](CC[C@@H]4C[C@@](O)(C(F)(F)F)CC[C@@H]43)[C@@H]1CC[C@@H]2C(=O)CO` [3α,21-Dihydroxy-3β-trifluoromethyl-5β-19-norpregnan-20-one], for which, in the test with mice (IP, 50% hpbcd, 10 mg/kg), the “% Control” value is listed as 140%. On GR complex, the IC50 is 246 nM and the IMAX was 100. For the same compound, the “% Protected” value in test [1] (setting [2]) amounted to 118.8%.

With `C[C@]12CC[C@](O)(CF)C[C@@H]1CC[C@@H]1[C@@H]2CC[C@]2(C)[C@@H](C(=O)CO)CC[C@@H]12` [3α,21-dihydroxy-3β-fluoromethyl-5α-pregnan-20-one], in the test on mice (IP, 50% hpbcd, 10 mg/kg), the “% Control” value came out at 109%. At GR complex, this compound had an IC50 of 592 nM and an IMAX of 101. In addition, the “% Protected” value in test [1] (setting [2]) was determined as 25%.

With `CC12CCC(O)(C(F)(F)F)CC1CCC1C2CCC2(C)C(C(=O)COC(=O)C=CC(=O)[O-])CCC12.[Na+]` (stereo not drawn) [3α,21-dihydroxy-3β-trifluoromethyl-5β-pregnan-20-one 21 hemifumarate sodium salt], the “% Control” value in the test on mice (IP, water, dose column prints 50% hpbcd) is reported as 126%. For the same compound, on GR complex, the IC50 is 546 nM and the IMAX is 102. For the same compound, the “% Protected” value in test [1] (water, 10 mg/kg) is 50%.

In the case of `CC(=O)OCC(=O)[C@H]1CC[C@H]2[C@@H]3CC[C@H]4C[C@H](O)CC[C@]4(C)[C@H]3CC[C@]12C` [3α,21-dihydroxy-5α-pregnan-20-one 21-acetate], the “% Control” value in the test with mice (IP, 50% hpbcd, 10 mg/kg) amounted to 133%. Moreover, at GR complex, the IC50 is 75 nM and the IMAX was found to be 99. Further, in test [1] (setting [2]), the “% Protected” value was determined as 50%.

Take `CC(=O)C1CCC2C3CCC4CC(O)(C(F)(F)F)CCC4(C)C3C(=O)CC12C` (stereo not drawn) [3α-Hydroxy-3β-trifluoromethyl-5β-pregnan-11,20-dione]: the “% Control” value in the test on mice (IP, 50% hpbcd, 10 mg/kg) turned out to be 112%.

With `C=C(C)C#CC1(O)CCC2(C)C(CCC3C2CCC2(C)C(C(C)=O)CCC32)C1` (stereo not drawn) [3α-hydroxy-3β-(3'-methyl-but-3'-en-1'-ynyl)-5α-pregnan-20-one], the “% Control” value with mice (IP, 50% hpbcd, 10 mg/kg) is 141%. Further, at GR complex, the IC50 was 88 nM and the IMAX was 95. Besides, the “% Protected” value in test [1] (setting [2]) amounted to 87.5%.

On to `C=C(C)C#C[C@@]1(O)CC[C@@]2(C)[C@H](CC[C@@H]3[C@@H]2CC[C@]2(C)[C@@H](C(C)=O)CC[C@@H]32)C1` [3α-hydroxy-3β-(3'-methyl-but-3'-en-1'-ynyl)-5β-pregnan-20-one], for which the “% Control” value with mice (IP, 50% hpbcd, 10 mg/kg) turned out to be 155%. For the same compound, on GR complex, the IC50 worked out at 24 nM and the IMAX came to 91. Besides, the “% Protected” value in test [1] (setting [2]) is recorded as 100%.

On to `C#C[C@@]1(O)CC[C@@]2(C)[C@H](CC[C@H]3[C@@H]4CC[C@H](C(C)=O)[C@@]4(C)C=C[C@@H]32)C1` [3β-Ethynyl-3α-hydroxy-5β-pregn-11-en-20-one], for which the “% Control” value in the test on mice (IP, 50% hpbcd, 10 mg/kg) is 233%. Besides, the “% Protected” value in test [1] (setting [2]) stood at 75%.

Regarding `C#C[C@@]1(O)CC[C@@]2(C)[C@H](CC[C@H]3[C@@H]4CC[C@H](C(C)=O)[C@@]4(C)CC(=O)[C@@H]32)C1` [3β-Ethynyl-3α-hydroxy-5β-pregnan-11,20-dione], the “% Control” value with mice (IP, 50% hpbcd, 5 mg/kg) was found to be 235.9%.

In the case of `CC(=O)[C@H]1CC[C@H]2[C@@H]3CC[C@H]4C[C@@](O)(C(F)(F)F)CC[C@@H]4[C@H]3CC[C@]12C` [3β-Trifluoromethyl-3α-hydroxy-5α-19-norpregnan-20-one], the “% Control” value in the test with mice (IP, 50% hpbcd, 10 mg/kg) is given as 161%. In addition, on GR complex, the IC50 amounted to 251 nM and the IMAX is listed as 40. Moreover, the “% Protected” value in test [1] (setting [2]) came out at 25%.

Turning to `C=C[C@@]1(O)CC[C@@]2(C)[C@H](CC[C@@H]3[C@@H]2CC[C@]2(C)[C@@H](C(C)=O)CC[C@@H]32)C1` [3β-ethenyl-3α-hydroxy-5β-pregnan-20-one], the “% Control” value in the test on mice (IP, 50% hpbcd, 10 mg/kg) turned out to be 151%. At GR complex, this compound gave an IC50 of 46 nM and an IMAX of 100. Besides, the “% Protected” value in test [1] (setting [2]) was 87.5%.

As for `C#C[C@@]1(O)CC[C@H]2[C@H](CC[C@@H]3[C@@H]2CC[C@]2(C)[C@@H](C(C)=O)CC[C@@H]32)C1` [3β-ethynyl-3α-hydroxy-19-nor-5β-pregnan-20-one], the “% Control” value with mice (IP, 50% hpbcd, 10 mg/kg) was 172%. Moreover, on GR complex, the IC50 was 44 nM and the IMAX is reported as 93. In addition, in test [1] (setting [2]), the “% Protected” value is recorded as 87.5%.

With `C#C[C@@]1(O)CC[C@@]2(C)[C@H](CC[C@@H]3[C@@H]2CC[C@]2(C)[C@@H](C(=O)COC(=O)CCC(=O)OCC(=O)[C@H]4CC[C@H]5[C@@H]6CC[C@@H]7C[C@@](O)(C#C)CC[C@]7(C)[C@H]6CC[C@]45C)CC[C@@H]32)C1` [Bis (3α,21-dihydroxy-3β-ethynyl-5β-pregnan-20-one) 21-hemisuccinate], at GR complex, the IC50 came to 68 nM and the IMAX stood at 56. Further, the “% Protected” value in test [1] (setting [2]) is 37.5%.

With “Bis (3α,21-dihydroxy-3β-trifluoromethyl-5β-pregnan-20-one) 21-hemisuccinate”, the “% Control” value in the test with mice (IP, 50% hpbcd, 10 mg/kg) came to 92%. On GR complex, this compound gave an IC50 of 189 nM and an IMAX of 23. Further, the “% Protected” value in test [1] (setting [2]) came out at 25%.

These data come from patent EP0808325B1, “[…] […] SERIES FOR […] GABA RECEPTOR” (priority 1994, dated 1996).
